Source: US7932262B2 (Novartis AG, priority 2006, dated 2011)
pEC50: −log10 of the molar value.

The compounds below were run on PC-3 cells (assay: Cell Proliferation Assay (Cell Titer Glo), PC-3 cell line). Conditions: Homo sapiens, PC-3, Cell Proliferation Assay, PC3; read-out: CPEC50 PC3.
Type: cell-based
Protocol: IV. Cell Proliferation Assay Protocol:
A2780, PC-3, or PC3MM cells were seeded at 1000 cells/well in 100 μL/well (10.000 cells/mL) growth media in 96-well plates. Cells were allowed to adhere to the bottom of plates for 3-5 hours in a 37° C. 5% CO2 incubator. Compounds were dissolved in DMSO and then transferred to the cell plates. The cells were incubated with the compounds for 3 days in a 37° C. 5% CO2 incubator. The growth medium containing the compounds was then removed from the cells and fresh medium was added, followed by 100 μL of Cell Titer Glo assay reagent (Promega). This mixture was shaken for 1 minute and then incubated without shaking for 10 minutes. Activity determinations for the compounds were made by detection on a Trilux Instrument.
V. Cell Proliferation Assay Protocol: PC-3 Cell Line
PC-3 cells were seeded at 1000 cells/well in 100 μL/well (10.000 cells/mL) along with growth media into black-walled, clear bottom 96-well plates. The cells were allowed to adhere to the bottom of the plate for 3-5 hours in a 37° C. 5% CO2 incubator.
Test compounds were diluted to 500× in DMSO. The DMSO solutions of six of the compounds were transferred to the cells in the 96 well round bottom plate, column 2, row B-F. A 1:3 serial dilution of each compound was carried out. The serial dilution comprised adding 20 μL of DMSO to the wells containing the compounds and doing a 1:3 dilution across the plate from columns 2-10. Column 11 contained only DMSO. The serial dilution was carried out using a BioMek 2000 protocol “CP Serial Dilution using 250 μL tips” or “Proliferation Compound” (if using 20 μL tips).
To a 96 deep well block, columns 2-11 rows B-F, was transferred 500 μL of growth medium. Using the FX protocol “HH_CellAssay—2 μL to 500 μL”, 2 μL of compound from each cell of the compound plate was transferred to the corresponding cell in the 96 deep well block containing 500 μL of growth medium. The instrument was programmed to dilute the compound in growth medium and then transfer 100 μL of that mixture to cell plates containing cells. The cell plates, to which test compounds had been added, were incubated for 3 days at 37° C. Following the incubation, the medium was removed and replaced with fresh medium. Cell Titer Glo (100 μL) was added to each well and the plate was shaken for 1 minute and then incubated without shaking for 10 minutes. The plates were then read using a Trilux instrument.
`CNc1ncc2ccc(OC3CCN(C(C)C)CC3)cc2n1` [Compound 322, 7-(1-isopropylpiperidin-4-yloxy)-N-methylquinazolin-2-amine] showed a pEC50 of 5.00 to 5.30. Compound `CC(C)N1CCC(Oc2cccc3cnc(NC(=O)c4ccccc4)nc23)CC1` [Compound 541, N-(8-(1-isopropylpiperidin-4-yloxy)quinazolin-2-yl)benzamide] has a pEC50 of 5.00 to 5.30. With `CC(C)N1CCC(Oc2cccc3cnc(NS(=O)(=O)c4ccccc4)nc23)CC1` [Compound 542, N-(8-(1-isopropylpiperidin-4-yloxy)quinazolin-2-yl)benzenesulfonamide] the pEC50 was 5.00 to 5.30. `CC(=O)Nc1ncc2cccc(OC3CCN(C(C)C)CC3)c2n1` [Compound 544, N-(8-(1-isopropylpiperidin-4-yloxy)quinazolin-2-yl)acetamide] showed a pEC50 of 5.00 to 5.30. `Brc1ccc(OC2CCNCC2)c2nc(Nc3ccc(N4CCNCC4)cc3)ncc12` [Compound 372, 5-bromo-N-(4-(piperazin-1-yl)phenyl)-8-(piperidin-4-yloxy)quinazolin-2-amine] was tested, and the pEC50 was over 5.30. With `CC(C)N1CCC(Nc2ncc3cccc(O)c3n2)CC1` [Compound 543, 2-(1-isopropylpiperidin-4-ylamino)quinazolin-8-ol] the pEC50 was 5.00 to 5.30. `NS(=O)(=O)c1ccc(Nc2ncc3cc(C(=O)Nc4cccc(NC(=O)c5ccccc5)c4)ccc3n2)cc1` [Compound 578, N-(3-benzamidophenyl)-2-(4-sulfamoylphenylamino)quinazoline-6-carboxamide] gave a pEC50 of over 5.30.

Same assay, conditions: Homo sapiens, PC-3, PC3 cells; read-out: CPEC50 PC3
`CC(C)N1CCC(Oc2ccc3cnc(Nc4ccc(F)cc4)nc3c2)CC1` [Compound 989, N-(4-fluorophenyl)-7-(1-isopropylpiperidin-4-yloxy)quinazolin-2-amine] showed a pEC50 of 5.00 to 5.30. Compound `CNC(=O)Cc1cccc(NC(=O)Cc2cccc(Nc3ncc4cccc(OC5CCN(C(C)C)CC5)c4n3)c2)c1` [Compound 1004, 2-(3-(8-(1-isopropylpiperidin-4-yloxy)quinazolin-2-ylamino)phenyl)-N-(3-(2-(methylamino)-2-oxoethyl)phenyl)acetamide] has a pEC50 of over 5.30. For `Fc1ccc(Nc2ncc3ccc(OC4CCNCC4)cc3n2)cc1` [Compound 988, N-(4-fluorophenyl)-7-(piperidin-4-yloxy)quinazolin-2-amine], the pEC50 was over 5.30. Compound `CC(C)N1CCC(Oc2cccc3cnc(Nc4cccc(N5CCOCC5)c4)nc23)CC1` [Compound 1006, 8-(1-isopropylpiperidin-4-yloxy)-N-(3-morpholinophenyl)quinazolin-2-amine] has a pEC50 of 5.00 to 5.30. With `CNS(=O)(=O)Cc1ccc(Nc2ncc3cccc(OC4CCN(C(C)C)CC4)c3n2)cc1` [Compound 1008, 1-(4-(8-(1-isopropylpiperidin-4-yloxy)quinazolin-2-ylamino)phenyl)-N-methylmethanesulfonamide] the pEC50 was over 5.30. `CC(C)NC(=O)Cc1cccc(Nc2ncc3cccc(OC4CCN(C(C)C)CC4)c3n2)c1` [Compound 1005, N-isopropyl-2-(3-(8-(1-isopropylpiperidin-4-yloxy)quinazolin-2-ylamino)phenyl)acetamide] gave a pEC50 of over 5.30. `CC(C)N1CCC(Oc2ccc3cnc(Nc4ccc(N)c(Cl)c4)nc3c2)CC1` [Compound 1013, 3-chloro-N1-(7-(1-isopropylpiperidin-4-yloxy)quinazolin-2-yl)benzene-1,4-diamine] showed a pEC50 of 5.00 to 5.30. `CC(C)N1CCC(Oc2cccc3cnc(Nc4cccc(CC(N)=O)c4)nc23)CC1` [Compound 1002, 2-(3-(8-(1-isopropylpiperidin-4-yloxy)quinazolin-2-ylamino)phenyl)acetamide] gave a pEC50 of 5.00 to 5.30. `CNS(=O)(=O)Cc1ccc(Nc2ncc3ccc(OC4CCN(C(C)C)CC4)cc3n2)cc1` [Compound 990, 1-(4-(7-(1-isopropylpiperidin-4-yloxy)quinazolin-2-ylamino)phenyl)-N-methylmethanesulfonamide] showed a pEC50 of over 5.30. With `CNC(=O)Cc1cccc(Nc2ncc3cccc(OC4CCN(C(C)C)CC4)c3n2)c1` [Compound 1003, 2-(3-(8-(1-isopropylpiperidin-4-yloxy)quinazolin-2-ylamino)phenyl)-N-methylacetamide] the pEC50 was over 5.30. For `Nc1ncc(-c2ccc3cnc(Nc4ccc(S(N)(=O)=O)cc4)nc3c2OC2CCNCC2)cc1C(F)(F)F` [Compound 933, 4-(7-(6-amino-5-(trifluoromethyl)pyridin-3-yl)-8-(piperidin-4-yloxy)quinazolin-2-ylamino)benzenesulfonamide], the pEC50 was over 5.30. `CC(C)N1CCC(Oc2cccc3cnc(Nc4ccc(Cl)cc4)nc23)CC1` [Compound 1010, N-(4-chlorophenyl)-8-(1-isopropylpiperidin-4-yloxy)quinazolin-2-amine] gave a pEC50 of over 5.30. Compound `CC(C)NS(=O)(=O)c1ccc(Nc2ncc3ccc(OC4CCN(C(C)C)CC4)cc3n2)cc1` [Compound 961, N-isopropyl-4-(7-(1-isopropylpiperidin-4-yloxy)quinazolin-2-ylamino)benzenesulfonamide] has a pEC50 of over 5.30. `CC(=O)Nc1ccc(Nc2ncc3cccc(OC4CCN(C(C)C)CC4)c3n2)cc1` [Compound 969] showed a pEC50 of over 5.30. For `CC(C)N1CCC(Oc2ccc3cnc(Nc4ccc(Cl)cc4)nc3c2)CC1` [Compound 959, N-(4-chlorophenyl)-7-(1-isopropylpiperidin-4-yloxy)quinazolin-2-amine], the pEC50 was over 5.30. Work on `CC(=O)Nc1ccc(Nc2ncc3ccc(OC4CCNCC4)cc3n2)cc1C` [Compound 1014, N-(2-methyl-4-(7-(piperidin-4-yloxy)quinazolin-2-ylamino)phenyl)acetamide] yielded a pEC50 of over 5.30. Work on `CC(C)N1CCC(Oc2cccc3cnc(Nc4ccc(C(F)(F)F)cc4)nc23)CC1` [Compound 1011, 8-(1-isopropylpiperidin-4-yloxy)-N-(4-(trifluoromethyl)phenyl)quinazolin-2-amine] yielded a pEC50 of over 5.30. For `CC(=O)Nc1cccc(Nc2ncc3cccc(OC4CCN(C(C)C)CC4)c3n2)c1` [Compound 1007, N-(3-(8-(1-isopropylpiperidin-4-yloxy)quinazolin-2-ylamino)phenyl)acetamide], the pEC50 was over 5.30. In the case of `COc1cc(Nc2ncc3ccc(OC4CCNCC4)cc3n2)cc(OC)c1` [Compound 957, N-(3,5-dimethoxyphenyl)-7-(piperidin-4-yloxy)quinazolin-2-amine], the pEC50 was over 5.30.
